Data published in PMC12146700 (Proceedings of the National Academy of Sciences of the …, 2025).
Residue numbers refer to the chain shown, from its start.

Assays:
[1] = biological target: T1, WT ATP8B1 fragment (residues 803 to 880) (Homo sapiens, UniProt O43520); test: surface plasmon resonance, protein covalently coupled on CM5 chip; type: binding; conditions: PIP2 injected at different concentrations; acyl chains not told
T1 sequence (O43520 803-880): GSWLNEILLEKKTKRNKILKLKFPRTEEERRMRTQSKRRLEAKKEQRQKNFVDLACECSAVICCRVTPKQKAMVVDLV

[2] = biological target: T2, human ATP8B1 (full-length, N-terminal GST-tagged) (Homo sapiens, UniProt O43520); test: ATPase activity stimulated by phospholipid; type: biochemical; conditions: activation of ATPase activity; acyl chains not told
T2 sequence (O43520 1-1251): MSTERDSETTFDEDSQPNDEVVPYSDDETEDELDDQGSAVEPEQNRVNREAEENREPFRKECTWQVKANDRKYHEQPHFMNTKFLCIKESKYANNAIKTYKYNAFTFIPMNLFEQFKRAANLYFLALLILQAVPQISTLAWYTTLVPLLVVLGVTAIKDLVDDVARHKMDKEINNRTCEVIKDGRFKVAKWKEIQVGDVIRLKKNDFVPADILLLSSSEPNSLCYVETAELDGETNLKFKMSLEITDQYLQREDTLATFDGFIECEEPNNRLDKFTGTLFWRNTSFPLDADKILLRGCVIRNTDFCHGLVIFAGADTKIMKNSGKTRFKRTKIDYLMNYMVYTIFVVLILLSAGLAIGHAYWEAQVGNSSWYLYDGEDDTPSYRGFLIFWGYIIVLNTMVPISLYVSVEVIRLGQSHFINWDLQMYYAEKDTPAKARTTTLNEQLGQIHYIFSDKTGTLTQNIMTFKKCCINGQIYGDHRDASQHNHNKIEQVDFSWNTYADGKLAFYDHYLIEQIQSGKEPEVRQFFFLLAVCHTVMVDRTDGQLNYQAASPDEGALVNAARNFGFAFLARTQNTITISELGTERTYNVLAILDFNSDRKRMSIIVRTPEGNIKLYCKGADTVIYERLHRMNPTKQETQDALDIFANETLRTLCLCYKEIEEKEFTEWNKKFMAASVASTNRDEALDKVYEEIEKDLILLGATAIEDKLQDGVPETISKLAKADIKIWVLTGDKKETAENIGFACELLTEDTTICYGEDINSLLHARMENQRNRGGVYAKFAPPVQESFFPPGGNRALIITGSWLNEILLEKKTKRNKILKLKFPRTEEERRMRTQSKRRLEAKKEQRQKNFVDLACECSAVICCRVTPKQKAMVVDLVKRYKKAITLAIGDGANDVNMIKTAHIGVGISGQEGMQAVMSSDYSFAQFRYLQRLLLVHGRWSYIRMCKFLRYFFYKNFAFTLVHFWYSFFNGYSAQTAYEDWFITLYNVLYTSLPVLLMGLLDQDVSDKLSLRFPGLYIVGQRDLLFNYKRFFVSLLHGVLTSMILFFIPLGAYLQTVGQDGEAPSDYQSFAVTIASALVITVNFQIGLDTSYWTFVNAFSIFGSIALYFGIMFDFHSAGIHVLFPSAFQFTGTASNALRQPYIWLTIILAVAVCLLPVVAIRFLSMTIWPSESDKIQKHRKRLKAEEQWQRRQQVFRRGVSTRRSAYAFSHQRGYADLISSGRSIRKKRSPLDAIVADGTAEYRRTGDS

[3] = biological target: T3, WT ATP8B1 fragment (residues 803 to 880) (Homo sapiens, UniProt O43520, K824A/R832A/R833A/R835A); test: surface plasmon resonance, protein covalently coupled on CM5 chip; type: binding; conditions: PIP2 injected at different concentrations; acyl chains not told
T3 sequence (O43520 803-880 K824A/R832A/R833A/R835A): T1 sequence (O43520 803-880) with K22A, R30A, R31A, R33A

- Kd [1]: ~11.5 µM
- EC50 [2]: 232 ± 35.2 µM
- Kd [3]: ~63.6 µM
Substance: PIP2
